Several values for one entry are separate records, joined by “and”; a condition that tells them apart may be missing. Equal values may be shown once. Numbered stars: 1 amine (or outer) side, 2 acyl side, 3 side chain; on linkers, the order of the positions; unused ones are H or OH. Bridge positions count the residues as written; N and C are the ends. Square brackets hold non-standard residues; d marks the D form. Peptide text beside a SMILES is read from it. ξ: configuration not given here. X3 = O=C(/C=N/OCCCCCCOc1cc(C[*:2])cc(C[*:3])c1)[*:1]; X9 = NC(=O)[C@H](CS[*:1])CC(=O)[C@H](CCC(=O)O)N[*:2]; tBuAla = CC(C)(C)C[C@H](N)C(=O)O; Thr(3ξ) = CC(O)[C@H](N)C(=O)O; hSer = N[C@@H](CCO)C(=O)O; Nle = CCCC[C@H](N)C(=O)O

Usually IC50 stands for the concentration at which inhibition is half-maximal.

This test concerns the target T1, rh-integrin α4β7/LPAM-1 (Homo sapiens, UniProt P13612+P26010).
T1 sequence (P13612 34-977 limits assumed): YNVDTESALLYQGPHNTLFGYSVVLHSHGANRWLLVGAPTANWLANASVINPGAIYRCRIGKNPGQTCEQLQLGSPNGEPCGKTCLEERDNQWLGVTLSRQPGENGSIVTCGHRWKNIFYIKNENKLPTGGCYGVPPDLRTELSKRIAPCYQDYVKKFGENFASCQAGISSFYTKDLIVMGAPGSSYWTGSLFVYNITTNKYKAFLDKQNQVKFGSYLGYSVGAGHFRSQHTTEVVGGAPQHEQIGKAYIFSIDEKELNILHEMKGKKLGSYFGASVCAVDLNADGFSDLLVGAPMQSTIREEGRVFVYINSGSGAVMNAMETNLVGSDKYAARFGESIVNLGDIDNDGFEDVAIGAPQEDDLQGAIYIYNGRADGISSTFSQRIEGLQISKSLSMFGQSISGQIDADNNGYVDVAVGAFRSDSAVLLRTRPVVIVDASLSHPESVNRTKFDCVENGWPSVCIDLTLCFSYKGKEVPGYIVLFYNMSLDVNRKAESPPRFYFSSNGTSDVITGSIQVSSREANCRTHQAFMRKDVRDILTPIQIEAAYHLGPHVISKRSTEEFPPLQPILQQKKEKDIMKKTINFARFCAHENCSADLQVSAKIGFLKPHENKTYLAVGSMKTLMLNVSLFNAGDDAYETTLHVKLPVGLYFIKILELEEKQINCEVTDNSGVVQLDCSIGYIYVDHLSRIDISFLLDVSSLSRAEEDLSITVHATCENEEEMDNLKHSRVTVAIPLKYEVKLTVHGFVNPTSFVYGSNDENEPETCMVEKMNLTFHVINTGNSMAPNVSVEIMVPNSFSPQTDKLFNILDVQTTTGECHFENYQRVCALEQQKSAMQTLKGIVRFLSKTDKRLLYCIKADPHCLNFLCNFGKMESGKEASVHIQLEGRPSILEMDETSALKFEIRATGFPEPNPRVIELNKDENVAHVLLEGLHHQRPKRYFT
T1 sequence (P26010 20-723 limits assumed): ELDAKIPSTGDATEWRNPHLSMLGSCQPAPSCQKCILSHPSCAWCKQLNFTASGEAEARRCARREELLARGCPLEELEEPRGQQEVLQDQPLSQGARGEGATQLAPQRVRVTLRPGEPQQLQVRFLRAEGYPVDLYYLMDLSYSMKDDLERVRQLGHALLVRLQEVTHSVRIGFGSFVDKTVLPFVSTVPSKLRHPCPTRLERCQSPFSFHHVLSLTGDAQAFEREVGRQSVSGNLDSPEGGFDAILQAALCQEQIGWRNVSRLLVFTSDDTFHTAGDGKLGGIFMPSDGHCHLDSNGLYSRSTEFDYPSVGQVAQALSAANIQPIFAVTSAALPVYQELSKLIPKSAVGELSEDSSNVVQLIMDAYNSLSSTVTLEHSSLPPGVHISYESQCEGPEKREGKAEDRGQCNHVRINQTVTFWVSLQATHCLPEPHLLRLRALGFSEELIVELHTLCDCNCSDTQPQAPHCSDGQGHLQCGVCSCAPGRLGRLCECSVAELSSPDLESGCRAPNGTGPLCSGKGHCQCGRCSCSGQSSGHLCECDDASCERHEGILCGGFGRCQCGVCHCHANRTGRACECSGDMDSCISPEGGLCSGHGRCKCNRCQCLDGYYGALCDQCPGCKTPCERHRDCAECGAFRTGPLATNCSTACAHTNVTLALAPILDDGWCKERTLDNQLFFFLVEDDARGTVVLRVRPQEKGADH
In words: α4β7-MadCAM Competition ELISA (Example 4). The class given is binding. To be noted: Table 3 Representative compounds; inhibition of MAdCAM binding to coated α4β7; read-out: IC50. As for the experimental part:
After washing with wash buffer, 200 μL assay buffer was added to each well and incubated for one hour at 28° C. After another wash with wash buffer, 100 μL of a MAdCAM and peptide mixture in assay buffer was added to each well and incubated for one hour at 28° C., followed by washing with wash buffer.
(In general: ELISA stands for enzyme-linked immunosorbent assay.)
With `CC[C@H](C)[C@@H]1NC(=O)[C@H](CC(=O)O)NC(=O)[C@H](CCSC)NC(=O)[C@@H]2CCCN2C(=O)[C@@H]2CSCc3cc(cc(c3)OCCCCCCO/N=C/C(=O)N[C@@H](CCCNC(=N)N)C(=O)N2)CSC[C@@H](C(N)=O)NC(=O)[C@H](CCC(=O)O)NC(=O)CNC(=O)[C@H](C)NC1=O` [compound 13] (RCPMDIAGEC-NH2; linker N-2-10 via X3), the IC50 was 227 nM.

Consider `CC[C@H](C)[C@@H]1NC(=O)[C@H](CC(=O)O)NC(=O)[C@H](CCOC)NC(=O)[C@@H]2CCCN2C(=O)[C@@H]2CSCc3cc(cc(c3)OCCCCCCO/N=C/C(=O)N[C@@H](CCCNC(=N)N)C(=O)N2)CSC[C@@H](C(N)=O)NC(=O)[C@H](CCC(=O)O)NC(=O)[C@H](CCC(N)=O)NC(=O)[C@H](Cc2c[nH]c3ccccc23)NC1=O` [compound 14] (RCP[hSer](Me)DIWQEC-NH2; linker N-2-10 via X3), for which the IC50 turned out to be 260 nM. In the case of `CCCC[C@@H]1NC(=O)[C@@H]2CCCN2C(=O)[C@@H]2CSCc3cc(cc(c3)OCCCCCCO/N=C/C(=O)N[C@@H](CCCNC(=N)N)C(=O)N2)CSC[C@@H](C(N)=O)NC(=O)[C@H](CCC(=O)O)NC(=O)CNC(=O)[C@H](C)NC(=O)[C@H](C(C)C)NC(=O)[C@H](CC(=O)O)NC1=O` [compound 15] (RCP[Nle]DVAGEC-NH2; linker N-2-10 via X3), the IC50 is 261 nM. On to `CC[C@H](C)[C@@H]1NC(=O)[C@H](CC(=O)O)NC(=O)[C@H](CCSC)NC(=O)[C@@H]2CCCN2C(=O)[C@@H]2CSCc3cc(cc(c3)OCCCCCCO/N=C/C(=O)N[C@@H](CCCNC(=N)N)C(=O)N2)CSC[C@@H](C(N)=O)NC(=O)[C@H](CCC(=O)O)NC(=O)[C@H](CCC(N)=O)NC(=O)[C@H](Cc2c[nH]c3ccccc23)NC1=O` [compound 16] (RCPMDIWQEC-NH2; linker N-2-10 via X3), for which the IC50 turned out to be 272 nM. With `CC[C@H](C)[C@@H]1NC(=O)[C@H](CC(=O)O)NC(=O)[C@H](CCSC)NC(=O)[C@@H]2CCCN2C(=O)[C@@H]2CSCc3cc(cc(c3)OCCCCCCO/N=C/C(=O)N[C@@H](CCCCN)C(=O)N2)CSC[C@@H](C(N)=O)NC(=O)[C@H]([C@@H](C)O)NC(=O)[C@@H]2CCCN2C1=O` [compound 18] (KCPMDIPTC-NH2; linker N-2-9 via X3) the figure was 345 nM; with `CC(C)C[C@@H]1NC(=O)[C@@H]2CCCN2C(=O)[C@@H]2CSCc3cc(cc(c3)OCCCCCCO/N=C/C(=O)N[C@@H](CCCCN)C(=O)N2)CSC[C@@H](C(N)=O)NC(=O)[C@H](CCC(=O)O)NC(=O)[C@H](Cc2ccc(O)cc2)NC(=O)[C@@H]2CCCN2C(=O)[C@H](CC(C)C)NC(=O)[C@H](CC(=O)O)NC1=O` [compound 19] (KCPLDLPYEC-NH2; linker N-2-10 via X3), 363 nM.

As to `CC[C@H](C)[C@@H]1NC(=O)[C@H](CC(=O)O)NC(=O)[C@H](CCSC)NC(=O)[C@@H]2CCCN2C(=O)[C@@H]2CSCc3cc(cc(c3)OCCCCCCO/N=C/C(=O)N[C@@H](CCCNC(=N)N)C(=O)N2)CSC[C@@H](C(N)=O)NC(=O)[C@H]([C@@H](C)O)NC(=O)[C@@H]2CCCN2C1=O` [compound 20] (RCPMDIPTC-NH2; linker N-2-9 via X3), the IC50 is 404 nM.

On to `CC(C)C[C@@H]1NC(=O)[C@@H]2CCCN2C(=O)[C@@H]2CSCc3cc(cc(c3)OCCCCCCO/N=C/C(=O)N[C@@H](CCCCN)C(=O)N2)CSC[C@@H](C(N)=O)NC(=O)[C@H](CCC(=O)O)NC(=O)[C@H](Cc2ccc(O)cc2)NC(=O)[C@@H]2CCCN2C(=O)[C@H]([C@@H](C)O)NC(=O)[C@H](CC(=O)O)NC1=O` [compound 22, TSL6- SKCPLDTPYEC] (KCPLDTPYEC-NH2; linker N-2-10 via X3), for which the 50% inhibitory concentration (IC50) is 495 nM and 940 nM.

Take `CSCC[C@@H]1NC(=O)[C@@H]2CCCN2C(=O)[C@@H]2CSCc3cc(cc(c3)OCCCCCCO/N=C/C(=O)N[C@@H](CCCNC(=N)N)C(=O)N2)CSC[C@@H](C(N)=O)NC(=O)[C@H](CCC(=O)O)NC(=O)CNC(=O)[C@H](C)NC(=O)[C@H](C(C)C)NC(=O)[C@H](CC(=O)O)NC1=O` [compound 23, TSL6- SRCPMDVAGEC] (RCPMDVAGEC-NH2; linker N-2-10 via X3): the IC50 was determined as 511 nM.

On to `CC(C)C[C@@H]1NC(=O)[C@@H]2CCCN2C(=O)[C@@H]2CSCc3cc(cc(c3)OCCCCCCO/N=C/C(=O)N[C@@H](CCCCN)C(=O)N2)CSC[C@@H](C(N)=O)NC(=O)[C@H](C)NC(=O)[C@H](Cc2ccc(O)cc2)NC(=O)[C@@H]2CCCN2C(=O)[C@H]([C@@H](C)O)NC(=O)[C@H](CC(=O)O)NC1=O` [compound 24, TSL6- SKCPLDTPYAC] (KCPLDTPYAC-NH2; linker N-2-10 via X3), for which the IC50 was 517 nM.

For `CC(C)C[C@@H]1NC(=O)[C@@H]2CCCN2C(=O)[C@@H](NC(=O)[C@H](CCCCN)NC(=O)[C@@H](N)CO)CSSC[C@@H](C(N)=O)CC(=O)[C@H](CCC(=O)O)NC(=O)[C@H](Cc2ccc(O)cc2)NC(=O)[C@@H]2CCCN2C(=O)[C@H](C(C)O)NC(=O)[C@H](CC(=O)O)NC1=O` (stereo partly shown) [compound 25] (H-SKCPLD[Thr(3ξ)]PY; linker 3-C via X9), the concentration for half-maximal inhibition (IC50) came out at 552 nM. As to `CC(C)C[C@@H]1NC(=O)[C@@H]2CCCN2C(=O)[C@@H]2CSCc3cc(cc(c3)OCCCCCCO/N=C/C(=O)N[C@@H](CCCCN)C(=O)N2)CSC[C@@H](C(N)=O)NC(=O)[C@H](CCC(=O)O)NC(=O)[C@H](CCC(N)=O)NC(=O)[C@@H]2CCCN2C(=O)[C@H]([C@@H](C)O)NC(=O)[C@H](CC(=O)O)NC1=O` [compound 26, TSL6- SKCPLDTPQEC] (KCPLDTPQEC-NH2; linker N-2-10 via X3), the IC50 came to 602 nM. With `CCCC[C@@H]1NC(=O)[C@@H]2CCCN2C(=O)[C@@H]2CSCc3cc(cc(c3)OCCCCCCO/N=C/C(=O)N[C@@H](CCCNC(=N)N)C(=O)N2)CSC[C@@H](C(N)=O)NC(=O)[C@H](CCCCN)NC(=O)[C@H](C(C)C)NC(=O)[C@H](Cc2c[nH]c3ccccc23)NC(=O)[C@H]([C@@H](C)CC)NC(=O)[C@H](CC(=O)O)NC1=O` [compound 27, TSL6- SRCP{Nle} DIWVKC] (RCP[Nle]DIWVKC-NH2; linker N-2-10 via X3) the figure was 620 nM; with `CSCC[C@@H]1NC(=O)[C@@H]2CCCN2C(=O)[C@@H]2CSCc3cc(cc(c3)OCCCCCCO/N=C/C(=O)N[C@@H](CCC(N)=O)C(=O)N2)CSC[C@@H](C(N)=O)NC(=O)[C@H]([C@@H](C)O)NC(=O)[C@@H]2CCCN2C(=O)[C@H](C(C)C)NC(=O)[C@H](CC(=O)O)NC1=O` [compound 28, TSL6- SQCPMDVPTC] (QCPMDVPTC-NH2; linker N-2-9 via X3), 672 nM. With `CSCC[C@@H]1NC(=O)[C@H](CC(=O)O)NC(=O)[C@H](CC(C)C)NC(=O)[C@@H]2CCCN2C(=O)[C@@H]2CSCc3cc(cc(c3)OCCCCCCO/N=C/C(=O)N[C@@H](CCCCN)C(=O)N2)CSC[C@@H](C(N)=O)NC(=O)[C@H](CCC(=O)O)NC(=O)[C@H](Cc2ccc(O)cc2)NC(=O)[C@@H]2CCCN2C1=O` [compound 29, TSL6- SKCPLDMPYEC] (KCPLDMPYEC-NH2; linker N-2-10 via X3) the figure was 672 nM; with `CC(C)[C@@H]1NC(=O)[C@H](CC(=O)O)NC(=O)[C@H](CC(C)(C)C)NC(=O)[C@@H]2CCCN2C(=O)[C@@H]2CSCc3cc(cc(c3)OCCCCCCO/N=C/C(=O)N[C@@H](CCCNC(=N)N)C(=O)N2)CSC[C@@H](C(N)=O)NC(=O)[C@H](CCC(=O)O)NC(=O)[C@H](CCC(N)=O)NC(=O)[C@@H]2CCCN2C1=O` [compound 30, TSL6- SRCP{tBuAla} DVPQEC] (RCP[tBuAla]DVPQEC-NH2; linker N-2-10 via X3), 690 nM.

(Values after US20230145835A1, “Modulators of Alpha-4-beta-7 Integrin and MAdCAM” (48HD Biopharma Inc., priority 2021, published 2023).)
